Source: patent US7332328B2, “Microcolumn-platform based array for high-throughput analysis” (Corning Incorporated, priority 2001, dated 2008)

Molecular target: adrenergic β1 receptor (Homo sapiens, UniProt P08588)
Experiment: Ligand binding assay on adrenergic β1 receptor arrays printed on microcolumns
Settings: 5 nM labeled ligand, microcolumn #1, about one hour incubation
Experimental: These glass microcolumns were coated with a thin gold layer and functionalized with GAPS. […] To assay ligand binding, the microcolumns were inserted into the wells of an 1×8-Stripwell plate (Corning®) containing a fluorescently-labeled β1 receptor ligand (bodipy-TMR CGP12177) (5 nM) in a ligand binding buffer (50 mM Tris-HCl, 2 mM EDTA, 1 mM MgCl2, pH 7.4, 0.1% BSA). […] Following incubation of about one hour, the microcolumns were removed, washed, and scanned to assess ligand binding on the array.

Chain of adrenergic β1 receptor (P08588 whole entry): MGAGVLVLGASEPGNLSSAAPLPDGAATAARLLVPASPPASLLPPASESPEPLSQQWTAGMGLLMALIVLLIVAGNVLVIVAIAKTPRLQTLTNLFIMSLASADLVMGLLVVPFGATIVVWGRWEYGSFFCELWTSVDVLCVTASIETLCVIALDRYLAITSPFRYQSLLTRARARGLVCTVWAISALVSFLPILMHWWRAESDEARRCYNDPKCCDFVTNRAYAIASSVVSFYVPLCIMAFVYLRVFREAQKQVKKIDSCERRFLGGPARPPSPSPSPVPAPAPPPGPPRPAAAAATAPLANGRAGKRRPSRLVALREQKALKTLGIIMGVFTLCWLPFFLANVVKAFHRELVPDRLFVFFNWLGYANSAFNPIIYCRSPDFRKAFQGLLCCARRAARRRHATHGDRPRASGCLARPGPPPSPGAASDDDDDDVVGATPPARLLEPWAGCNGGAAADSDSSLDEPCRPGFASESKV

Binding of fluorescently-labeled ligand to the β1 receptor array (fluorescent signal): high fluorescent signal
Substance: bodipy-TMR CGP12177
